Experimental data from patent publication US20110039721A1, “METHOD FOR PREDICTION ABOUT CARCINOGENICITY OF SUBSTANCE IN RODENT” (Chemicals Evaluation and Research Institute, priority 2007, published 2011).

System: mRNA expressed from the genes (A) to (D) in rat liver
Assay: Behavior of genes (mRNA expression level, oligo-DNA microarray) in rat liver after 28-day oral administration
Type: in vivo
Conditions: for Behavior of gene caused by administration of chemical substance, Gene No. 4846 / Behavior of gene caused by administration of chemical substance, Gene No. 2026 / Behavior of gene caused by administration of chemical substance, Gene No. 4218 / Behavior of gene caused by administration of chemical substance, Gene No. 6182 / Behavior of gene caused by administration of chemical substance, Gene No. 5600: gene group (A); for Behavior of gene caused by administration of chemical substance, Gene No. 4846: Unigene No. Rn.144554; for Behavior of gene caused by administration of chemical substance, Gene No. 2026 / Behavior of gene caused by administration of chemical substance, Gene No. 4218: Unigene No. Rn.167075; for Behavior of gene caused by administration of chemical substance, Gene No. 6182: Unigene No. Rn.5834; for Behavior of gene caused by administration of chemical substance, Gene No. 5600: Unigene No. Rn.9836; for Behavior of gene caused by administration of chemical substance, Gene No. 1494 / Behavior of gene caused by administration of chemical substance, Gene No. 2045 / Behavior of gene caused by administration of chemical substance, Gene No. 2203: gene group (B); for Behavior of gene caused by administration of chemical substance, Gene No. 1494: Unigene No. Rn.1430; for Behavior of gene caused by administration of chemical substance, Gene No. 2045: Unigene No. Rn.19329; for Behavior of gene caused by administration of chemical substance, Gene No. 2203: Unigene No. Rn.21240; for Behavior of gene caused by administration of chemical substance, Gene No. 533 / Behavior of gene caused by administration of chemical substance, Gene No. 725 / Behavior of gene caused by administration of chemical substance, Gene No. 1163 / Behavior of gene caused by administration of chemical substance, Gene No. 4973 / Behavior of gene caused by administration of chemical substance, Gene No. 4095 / Behavior of gene caused by administration of chemical substance, Gene No. 1334 / Behavior of gene caused by administration of chemical substance, Gene No. 6620 / Behavior of gene caused by administration of chemical substance, Gene No. 6303 / Behavior of gene caused by administration of chemical substance, Gene No. 5878 / Behavior of gene caused by administration of chemical substance, Gene No. 1131 / Behavior of gene caused by administration of chemical substance, Gene No. 1562 / Behavior of gene caused by administration of chemical substance, Gene No. 1741 / Behavior of gene caused by administration of chemical substance, Gene No. 893 / Behavior of gene caused by administration of chemical substance, Gene No. 6026 / Behavior of gene caused by administration of chemical substance, Gene No. 154 / Behavior of gene caused by administration of chemical substance, Gene No. 1993 / Behavior of gene caused by administration of chemical substance, Gene No. 813 / Behavior of gene caused by administration of chemical substance, Gene No. 2494 / Behavior of gene caused by administration of chemical substance, Gene No. 2546 / Behavior of gene caused by administration of chemical substance, Gene No. 3776 / Behavior of gene caused by administration of chemical substance, Gene No. 3929 / Behavior of gene caused by administration of chemical substance, Gene No. 1119 / Behavior of gene caused by administration of chemical substance, Gene No. 6742 / Behavior of gene caused by administration of chemical substance, Gene No. 5634: gene group (C); for Behavior of gene caused by administration of chemical substance, Gene No. 533: Unigene No. Rn.106184; for Behavior of gene caused by administration of chemical substance, Gene No. 725: Unigene No. Rn.108075; for Behavior of gene caused by administration of chemical substance, Gene No. 1163: Unigene No. Rn.11766; for Behavior of gene caused by administration of chemical substance, Gene No. 4973: Unigene No. Rn.118529; for Behavior of gene caused by administration of chemical substance, Gene No. 4095: Unigene No. Rn.119024; for Behavior of gene caused by administration of chemical substance, Gene No. 1334 / Behavior of gene caused by administration of chemical substance, Gene No. 6620: Unigene No. Rn.120914; for Behavior of gene caused by administration of chemical substance, Gene No. 6303: Unigene No. Rn.123063; for Behavior of gene caused by administration of chemical substance, Gene No. 5878: Unigene No. Rn.143213; for Behavior of gene caused by administration of chemical substance, Gene No. 1131: Unigene No. Rn.144946; for Behavior of gene caused by administration of chemical substance, Gene No. 1562: Unigene No. Rn.14744; for Behavior of gene caused by administration of chemical substance, Gene No. 1741: Unigene No. Rn.1647; for Behavior of gene caused by administration of chemical substance, Gene No. 893: Unigene No. Rn.164817; for Behavior of gene caused by administration of chemical substance, Gene No. 6026: Unigene No. Rn.167685; for Behavior of gene caused by administration of chemical substance, Gene No. 154: Unigene No. Rn.185941; for Behavior of gene caused by administration of chemical substance, Gene No. 1993: Unigene No. Rn.18728; for Behavior of gene caused by administration of chemical substance, Gene No. 813: Unigene No. Rn.201760; for Behavior of gene caused by administration of chemical substance, Gene No. 2494: Unigene No. Rn.23969; for Behavior of gene caused by administration of chemical substance, Gene No. 2546: Unigene No. Rn.24561; for Behavior of gene caused by administration of chemical substance, Gene No. 3776: Unigene No. Rn.43232; for Behavior of gene caused by administration of chemical substance, Gene No. 3929: Unigene No. Rn.4620; for Behavior of gene caused by administration of chemical substance, Gene No. 1119: Unigene No. Rn.9757; for Behavior of gene caused by administration of chemical substance, Gene No. 6742: Unigene No. Rn.9779; for Behavior of gene caused by administration of chemical substance, Gene No. 5634: Unigene No. Rn.9862; for Behavior of gene caused by administration of chemical substance, Gene No. 5726: gene group (D), Unigene No. Rn.9939
Experimental: A test solution was prepared by dissolving each of the carcinogens and the non-carcinogens shown in Tables 2 to 6 in the corresponding solvent shown in Tables 2 to 6. Each of the thus prepared test solutions and the solvents used for the preparation was administered by oral gavage to rats in each group. As the rats, male rats (F344 SPF rats) at 5 weeks of age obtained from Charles River Laboratories Japan, Inc. were used. The animals were divided into groups, each containing four individuals. The volume of the solvent administered to the vehicle control group was set to the same volume as that of the test solution administered to the carcinogen administration group or the non-carcinogen administration group. The administration of the test solution or the solvent was performed once daily for 28 days. Apiece was excised from the liver of each of the rats after a lapse of 28 days from the initiation of the administration, and the total RNA was extracted and purified.
The expression level of mRNA was compared between each of the chemical substance administration groups and the corresponding vehicle control group, and genes that satisfy the requirements described in (A) to (D) were selected, respectively.
The case where the expression level of mRNA in the carcinogen administration group or the non-carcinogen administration group is 1.5 times or more or 1/1.5 or less of the expression level of the corresponding mRNA expressed in the control group was determined to be significant. In this connection, the determination as to whether or not the change is significant was performed by taking into consideration the direction of increase or decrease in the expression level. In the case where the direction of increase or decrease is different as compared with the case where another carcinogen was administered, the change was determined to be not significant.

CC(=O)Nc1ccc(O)cc1 [TS031, Acetaminophen]
Behavior of gene caused by administration of chemical substance, Gene No. 4846: −
Behavior of gene caused by administration of chemical substance, Gene No. 2026: +
Behavior of gene caused by administration of chemical substance, Gene No. 4218: −
Behavior of gene caused by administration of chemical substance, Gene No. 6182: −
Behavior of gene caused by administration of chemical substance, Gene No. 5600: −
Behavior of gene caused by administration of chemical substance, Gene No. 1494: +
Behavior of gene caused by administration of chemical substance, Gene No. 2045: −
Behavior of gene caused by administration of chemical substance, Gene No. 2203: −
Behavior of gene caused by administration of chemical substance, Gene No. 533: +
Behavior of gene caused by administration of chemical substance, Gene No. 725: −
Behavior of gene caused by administration of chemical substance, Gene No. 1163: −
Behavior of gene caused by administration of chemical substance, Gene No. 4973: −
Behavior of gene caused by administration of chemical substance, Gene No. 4095: −
Behavior of gene caused by administration of chemical substance, Gene No. 1334: −
Behavior of gene caused by administration of chemical substance, Gene No. 6620: −
Behavior of gene caused by administration of chemical substance, Gene No. 6303: −
Behavior of gene caused by administration of chemical substance, Gene No. 5878: −
Behavior of gene caused by administration of chemical substance, Gene No. 1131: −
Behavior of gene caused by administration of chemical substance, Gene No. 1562: −
Behavior of gene caused by administration of chemical substance, Gene No. 1741: +
Behavior of gene caused by administration of chemical substance, Gene No. 893: −
Behavior of gene caused by administration of chemical substance, Gene No. 6026: −
Behavior of gene caused by administration of chemical substance, Gene No. 154: −
Behavior of gene caused by administration of chemical substance, Gene No. 1993: −
Behavior of gene caused by administration of chemical substance, Gene No. 813: −
Behavior of gene caused by administration of chemical substance, Gene No. 2494: −
Behavior of gene caused by administration of chemical substance, Gene No. 2546: +
Behavior of gene caused by administration of chemical substance, Gene No. 3776: −
Behavior of gene caused by administration of chemical substance, Gene No. 3929: −
Behavior of gene caused by administration of chemical substance, Gene No. 1119: −
Behavior of gene caused by administration of chemical substance, Gene No. 6742: +
Behavior of gene caused by administration of chemical substance, Gene No. 5634: −
Behavior of gene caused by administration of chemical substance, Gene No. 5726: −

C[C@H](CCC(=O)O)[C@H]1CC[C@H]2[C@@H]3CC[C@@H]4C[C@H](O)CC[C@]4(C)[C@H]3CC[C@]12C [TS040, Lithocholic acid]
Behavior of gene caused by administration of chemical substance, Gene No. 4846: −
Behavior of gene caused by administration of chemical substance, Gene No. 2026: −
Behavior of gene caused by administration of chemical substance, Gene No. 4218: −
Behavior of gene caused by administration of chemical substance, Gene No. 6182: −
Behavior of gene caused by administration of chemical substance, Gene No. 5600: −
Behavior of gene caused by administration of chemical substance, Gene No. 1494: −
Behavior of gene caused by administration of chemical substance, Gene No. 2045: −
Behavior of gene caused by administration of chemical substance, Gene No. 2203: −
Behavior of gene caused by administration of chemical substance, Gene No. 533: −
Behavior of gene caused by administration of chemical substance, Gene No. 725: −
Behavior of gene caused by administration of chemical substance, Gene No. 1163: −
Behavior of gene caused by administration of chemical substance, Gene No. 4973: −
Behavior of gene caused by administration of chemical substance, Gene No. 4095: −
Behavior of gene caused by administration of chemical substance, Gene No. 1334: −
Behavior of gene caused by administration of chemical substance, Gene No. 6620: −
Behavior of gene caused by administration of chemical substance, Gene No. 6303: −
Behavior of gene caused by administration of chemical substance, Gene No. 5878: −
Behavior of gene caused by administration of chemical substance, Gene No. 1131: −
Behavior of gene caused by administration of chemical substance, Gene No. 1562: −
Behavior of gene caused by administration of chemical substance, Gene No. 1741: −
Behavior of gene caused by administration of chemical substance, Gene No. 893: −
Behavior of gene caused by administration of chemical substance, Gene No. 6026: −
Behavior of gene caused by administration of chemical substance, Gene No. 154: −
Behavior of gene caused by administration of chemical substance, Gene No. 1993: −
Behavior of gene caused by administration of chemical substance, Gene No. 813: −
Behavior of gene caused by administration of chemical substance, Gene No. 2494: −
Behavior of gene caused by administration of chemical substance, Gene No. 2546: −
Behavior of gene caused by administration of chemical substance, Gene No. 3776: −
Behavior of gene caused by administration of chemical substance, Gene No. 3929: −
Behavior of gene caused by administration of chemical substance, Gene No. 1119: −
Behavior of gene caused by administration of chemical substance, Gene No. 6742: +
Behavior of gene caused by administration of chemical substance, Gene No. 5634: −
Behavior of gene caused by administration of chemical substance, Gene No. 5726: −
